According to patent US8735152B2, “Methods for inducing cell death in pluripotent stem cells and differentiated cells other than cardiac myocytes” (Daiichi Sankyo Company, Limited, priority 2009, dated 2014):

How the values were obtained:
Format in all cases: cell-based
[1] = test system: marmoset embryonic stem cells; assay: Cell death inducing effect on marmoset embryonic stem cells (TMRM FACS, 5-day adherent culture); conditions: 0.45 M, 2 hours
Description: The marmoset embryonic stem cells were obtained from the Central Institute for Experimental Animals (Stem Cells, 2005 October; 23(9): 1304-13). The cells were cultured basically in accordance with the method described in this document. To be more specific, the marmoset embryonic stem cells were cultured to maintain their undifferentiated state using mouse embryonic fibroblasts (MEF) that had been inactivated for growth by treatment with mitomycin C. The culture medium of KO-DMEM (GIBCO), supplemented with 20% KO-SERUM (GIBCO), 1.6 mM L-glutamine, 0.1 mM non-essential amino acids (MEM), 0.2 mM β-mercaptoethanol (2-ME; Sigma), 100 IU/ml penicillin, 100 μg/ml streptomycin sulfate, and 8 ng/ml recombinant human leukemia inhibiting factor (LIF; Chemicon) or recombinant human basic fibroblast growth factor (bFGF; Peprotech) was used. Upon passaging, the cells were treated with 0.1% type III collagenase (Wortington) at 37° C. for 10 minutes to separate ES colonies. […] Thereafter, the cells treated with mannitol for 2 hours and the control cells were analyzed by FACS for the level of mitochondrial membrane potential on the basis of the fluorescent intensity of TMRM to check the state of survival of the stem cells; the results are shown in FIG. 5. […]

[2] = test system: mouse embryonic stem cells; assay: Cell death inducing effect on mouse embryonic stem cells (TMRM, FACS); conditions: 0.45 M
Excerpt: The mitochondrial membrane potential is lost in dead cells, so if cells are stained with the mitochondrial membrane potential sensitive reagent TMRM (Molecular Probe) which emits fluorescence upon detecting the membrane potential which is an indicator of survival, the fluorescence signal derived from this reagent is high in live cells but low in dead cells. This feature was used in Example 3; embryonic stem cells cultured by the method of Example 1 were further cultured in an α-MEM culture medium containing 0.45 M mannitol (approximately equivalent to 720 mOsm/kg) and 1 μM TMRM for a period of 0 h (Pre), 3 h, 6 h or 20 h; the cultured embryonic stem cells were harvested, washed and subjected to FACS analysis for checking the state of their survival on the basis of the fluorescence intensity of the mitochondrial membrane potential sensitive reagent TMRM; the results are shown in FIG. 4. In FIG. 4 depicting the results of FACS analysis for 0 h (Pre), 3 h, 6 h, and 20 h, the cells lying above the border line on the dot plots diagrams are live cells and those below the border line are dead cells.

[3] = test system: human embryonic stem cells; assay: Cell death inducing effect on human embryonic stem cells (TMRM FACS, 5-day adherent culture); conditions: 0.45 M
Description: The human embryonic stem cells were obtained from Stem Cell Research Center, Institute for Frontier Medical Sciences, Kyoto University (ES cell center sponsored by the National Bio-Resource Project) (Suemori, H et al., Biochem. Biophys. Res. Commun., Vol. 345, 2006, pp. 926-932). The cells were cultured basically in accordance with the method described in this document. To be more specific, the human embryonic stem cells were cultured to maintain their undifferentiated state using mouse embryonic fibroblasts (MEF) that had been inactivated for growth by treatment with mitomycin C. The culture medium of F12/DMEM (1:1) (SIGMA; Product No. D6421), supplemented with 20% KO-SERUM (GIBCO), 1.6 mM L-glutamine, 0.1 mM non-essential amino acids (MEM), 0.1 mM β-mercaptoethanol (2-ME; Sigma), 100 IU/ml penicillin, 100 μg/ml streptomycin sulfate, and recombinant human basic fibroblast growth factor (bFGF; Reprotech) was used. Upon passaging, the cells were treated with 0.1% type III collagenase (Wortington) at 37° C. for 10 minutes to separate embryonic stem cell colonies. After passaging, the cells were dispersed with each other using TE (0.25% trypsin (GIBCO) and 1 mM EDTA) and in accordance with a published document (Watanabe, K. et al., Nat. Biotechnol., 2007, 25: 681-686, Epub 2007 May 27), 10 μM of a ROCK inhibitor (Y27632) was added to suppress cell death. At the same time, the mitochondria in the live cells were stained with 50 nM TMRM. Part of the stained cells were treated with an α-MEM culture medium containing 0.45 M mannitol (approximately equivalent to 720 mOsm/kg) for 2, 3 or 4 hours and three samples were prepared from these cells; the rest of the stained cells were treated with a mannitol-free α-MEM culture medium for 2 hours and a sample was prepared from these cells as a control. In the control, cells were aggregated with each other to make masses, so before FACS analysis, the treated groups and the control were given another treatment with trypsin and EDTA to disperse the cells. The cells treated with mannitol for 2, 3 or 4 hours and the control cells were analyzed by FACS for the level of mitochondrial membrane potential on the basis of the fluorescent intensity of TMRM to check the state of survival of the stem cells; the results are shown in FIG. 7. […] In addition, the TMRM-stained cells were photographed, both for the case of 2-h treatment with mannitol and for the control (FIG. 8)). […] Changes in the mitochondrial membrane potential were observed using the experimental technique of Example 5, provided that the human embryonic stem cells were treated not with mannitol, but with 0.45 M of various other saccharides (sugar alcohols: sorbitol and xylitol; sugars: sucrose and glucose; betaines: trimethylglycine) (approximately equivalent to 750-780 mOsm/kg) for 2 hours.

Question: `OC[C@@H](O)[C@@H](O)[C@H](O)[C@H](O)CO` [mannitol] was tested. Which “Mitochondrial membrane potential (TMRM fluorescence, FACS)” value [1] did it give?
Answer: almost all of the cells treated with mannitol for 2 hours had lost membrane potential

Question: And the “Survival after adherent culture for 5 days” value ([1]; then 5 days adherent culture)?
Answer: none of the cells exposed to mannitol were found alive

Question: And the “Cells that had died” value ([2]; 3-hr treatment)?
Answer: approximately 90%

Question: What about the “Cells that had died” value ([2]; 6-hr treatment) of the same molecule?
Answer: 98%

Question: And the “Cells that had died” value ([2]; 20-hr treatment)?
Answer: all cells had been dead

Question: What about the “Mitochondrial membrane potential (TMRM fluorescence, FACS)” value ([3]; 2 hours) of the same molecule?
Answer: almost all of the cells treated with mannitol for 2 hours had lost membrane potential

Question: What about the “Self-aggregation of cells immediately after treatment” value ([3]; 2 hours, photographs of TMRM-stained cells) of the same molecule?
Answer: remained dispersed

Question: And the “Survival after adherent culture for 5 days” value ([3]; then 5 days adherent culture)?
Answer: none of the cells exposed to mannitol were found live
